# Experimental data from patent publication US20110008261A1, “METHOD TO PRODUCE HYPERPOLARISED AMINO ACIDS AND AMINOSULPHONIC ACIDS” (GE HEALTHCARE LIMITED, priority 2008, published 2011).
# Assays:
# [1] = Liquid state polarisation after liquefaction and neutralization, by liquid state 13C-NMR at 400 MHz; format: physicochemical
# Description: In a similar way, the level of polarisation for liquid hyperpolarised samples may be determined by liquid state NMR measurements of the NMR active nucleus in the liquid hyperpolarised sample. Again the signal intensity of the liquid hyperpolarised sample is compared with the signal intensity of the liquid sample before polarisation. The level of polarisation is then calculated from the ratio of the signal intensities of before and after polarisation.
# After 150 minutes of dynamic nuclear polarisation, the obtained frozen polarised solution was dissolved in a dissolution medium containing 6 ml of a phosphate buffer (20 mM, pH 6.8, 100 mg/l EDTA), aqueous NaOH (27 μl 12 M solution, 1 eq) and 30 mg NaCl.
# After 120 minutes of dynamic nuclear polarisation, the obtained frozen polarised solution was dissolved in a dissolution medium containing 6 ml phosphate buffer (40 mM, pH 7, 100 mg/l EDTA, 0.9% NaCl).
# [2] = Solid state polarisation after DNP, by solid state 13C-NMR; format: physicochemical; details: 3.35 T, 93.90 GHz
# Description: The level of polarisation may for instance be determined by solid state NMR measurements of the NMR nucleus in the frozen hyperpolarised sample. For instance, if the NMR active nucleus in the hyperpolarised sample is ^13C, a solid state ^13C-NMR measurement is carried out. The solid state ^13C-NMR measurement preferably consists of a simple pulse-acquire NMR sequence using a low flip angle. The signal intensity of the hyperpolarised sample in the ^13C-NMR spectrum is compared with signal intensity of the sample in a ^13C-NMR spectrum acquired before the DNP polarisation process. The level of polarisation is then calculated from the ratio of the signal intensities of before and after polarisation.
# The probe is inserted into the probe-retaining container, submerged in the liquid helium and irradiated with microwaves, preferably at a frequency of about 94 GHz at 200 mW. The level of polarisation may for instance be monitored by solid state NMR measurements of the NMR active nucleus in the frozen solution comprising the hyperpolarised sample. For instance, if the NMR active nucleus in the hyperpolarised sample is ^13C, a solid state ^13C-NMR measurement is carried out. The solid state ^13C-NMR measurement preferably consists of a simple pulse-acquire NMR sequence using a low flip angle. The signal intensity of the hyperpolarised sample in the ^13C-NMR spectrum is compared with signal intensity of the sample in a ^13C-NMR spectrum acquired before the DNP polarisation process. The level of polarisation is then calculated from the ratio of the signal intensities of before and after polarisation.
# 32.5 mg (0.258 mmol) of the ^13C1-alanine hydrochloride obtained in Example 1a was added to 42 mg of a stock solution in a micro test tube. The stock solution had been prepared by dissolving the DNP agent (trityl radical) tris(8-carboxy-2,2,6,6-(tetra(hydroxyethyl)-benzo-[1,2-4,5′]-bis-(1,3)-dithiole-4-yl)-methyl sodium salt which had been synthesised according to Example 7 of WO-A1-98/39277 and the paramagnetic metal ion (Gd-chelate of 1,3,5-tris-(N-(DO3A-acetamido)-N-methyl-4-amino-2-methylphenyl)-[1,3,5]triazinane-2,4,6-trione) which had been synthesised according to Example 4 of WO-A-2007/064226 in glycerol in such a way that a glycerol solution being 26 mM in trityl radical and 0.52 mM in Gd-chelate had been obtained. The resulting composition was sonicated to dissolve the ^13C1-alanine hydrochloride and produce a clear solution. […] The frozen solution was polarised under DNP conditions at 1.2 K in a 3.35 T magnetic field under irradiation with microwave (93.90 GHz). Polarisation was followed by solid state ^13C-NMR and the solid state polarisation was determined to be 40%.
# ^13C1-glutamine (45.5 mg, 0.30 mmol, Cambridge Isotopes) was weighted into a micro test tube and dissolved in 23.5 μl water and 25 μl aqueous NaOH (12 M). The mixture was sonicated and gently heated to produce a clear solution. To the solution was added 5.7 mg of an aqueous solution of tris(8-carboxy-2,2,6,6-(tetra(hydroxyethyl)-benzo-[1,2-4,5′]-bis-(1,3)-dithiole-4-yl)-methyl sodium salt (trityl radical; 139 μmol/g solution) and 2.1 mg of an aqueous solution of the Gd-chelate of 1,3,5-tris-(N-(DO3A-acetamido)-N-methyl-4-amino-2-methylphenyl)-[1,3,5]triazinane-2,4,6-trione) (paramagnetic metal ion; 14.5 μmol/g solution) The resulting composition was sonicated and gently heated to produce a clear solution. […] The sample cup was removed from the liquid nitrogen, 25 μl aqueous HCl (12 M) were added to the sample cup. […] The frozen solution was polarised under DNP conditions at 1.2 K in a 3.35 T magnetic field under irradiation with microwave (93.90 GHz). Polarisation was followed by solid state ^13C-NMR and the solid state polarisation was determined to be 35%.
# [3] = basic preparation according to Example 2, after liquefaction and neutralization
# [4] = basic preparation according to Example 2, DNP at 1.2 K
# [5] = acidic preparation according to Example 1, after liquefaction and neutralization
# [6] = acidic preparation according to Example 1, DNP at 1.2 K
SMILES,"Liquid state polarisation [1, 3] [%]","Solid state polarisation [2, 4] [%]","Liquid state polarisation [1, 5] [%]","Solid state polarisation [2, 6] [%]",further results
N[C@@H](CS)[13C](=O)O [^13C1-cysteine],–,–,17,25,–
NC(=O)CCC(N)[13C](=O)[O-].[Na+] (stereo not drawn) [Sodium ^13C1-2-amino-4-carbamoyl-butanoate],–,–,–,–,"Solid state polarisation ([2]; Example 2a, 4 M aqueous, 11 mM trityl radical, 0.4 mM Gd3+, 1.2 K): 35%"
"C[C@H](N)[13C](=O)O.Cl [^13C1-alanine hydrochloride, ^13C1-alaninium chloride]",–,–,–,–,"Solid state polarisation ([2]; Example 1b, 4 M in glycerol, 17 mM trityl radical, 0.9 mM Gd3+, 1.2 K): 40%"
CC(N)[13C](=O)O (stereo not drawn) [^13C1-alanine],16,18,–,–,"Liquid state polarisation ([1]; Example 1c, after 150 minutes DNP, dissolved in phosphate buffer/NaOH, final pH 6.8, 400 MHz): 35%"

# Further lines, with some results ahead:
"Liquid state polarisation [1, 3] [%]","Solid state polarisation [2, 4] [%]","Liquid state polarisation [1, 5] [%]","Solid state polarisation [2, 6] [%]",SMILES,further results
21,35,–,–,CC(C)C[C@H](N)[13C](=O)O [^13C1-leucine],–
–,–,26,41,CSCCC(N)[13C](=O)O (stereo not drawn) [^13C1-methionine],–
–,–,16,–,O=[13C](O)C1CCCN1 (stereo not drawn) [^13C1-proline],–
18,19,16,16,NC[13C](=O)O [^13C1-glycine],–
–,–,6,–,NC(=O)CC[C@H](N)[13C](=O)O [^13C1-glutamine],"Liquid state polarisation ([1]; Example 2b, after 120 minutes DNP, dissolved in phosphate buffer, final pH 7, 400 MHz): 30%"
